In paper PMC8890542, “Discovery of novel paeonol-based derivatives against skin inflammation in vitro and in vivo” (Journal of Enzyme Inhibition and Medicinal Chemistry, 2022):

Columns and labels:
[1] = Cell viability assay (MTT), LO2; format: cell-based; conditions: human, LO2 cells, read-out: Cytotoxicity IC50 with LO2
[2] = test system: LPS-induced nitric oxide production in RAW264.7 cells; assay: LPS-induced NO production, Griess Reagent assay; format: cell-based, mouse; conditions: for IC50 / inhibition at 10 µM: Mus musculus; for IC50: LPS (0.5 μg/mL) 24 h; for inhibition at 10 µM: compounds 10 μM, 1 h, then LPS (0.5 μg/mL) 24 h, read-out: Inhibition rate±SD (%) against NO production; for Inhibitory activity on LPS-induced NO secretion, in words: 10 µM
Method: RAW264.7 cells (7 × 10^4 cells/well) were seeded into 48-well plate and used for experiments after 24 h. […] After 24 h collect cell supernatant, NO production was measured using Griess Reagent assay (Beyotime). Griess reagent were mixed at a ratio of 1:1, and reacted at room temperature for 15 min. Measurement of absorbance at […] with enzyme reader. At least three independent experiments were performed for the determination of IC50 values, which were shown as mean ± SD. All experimental data were analysed by using GraphPad Prism software, version 8.0 (GraphPad Inc.).

[3] = Cell viability assay (MTT), RAW264.7; format: cell-based, mouse; conditions: mouse, RAW264.7 cells, read-out: Cytotoxicity IC50 with RAW264.7
Method: RAW264.7 cells (1 × 10^4 cells/well) were seeded into 96-well plate and used for experiments after 24 h. Compounds (4 µM, 20 µM and 100 µM) treated cell for 24 h. Forty microliters of MTT solution (5 mg/mL, Sigma-Aldrich) was then added and incubated for an additional 4 h. After 4 h, cell culture supernatants were removed and DMSO (150 µL) was added into per well for dissolving the resulting crystals. Shaking about 1 0 ∼ 15 min and the absorbance at 492 nm was measured by a microplate reader (MQX200, Bio-Tek, Winooski, VT). At least three independent experiments were performed for the determination of IC50 values, which were shown as mean ± SD. All experimental data were analysed by using GraphPad Prism software, version 8.0 (GraphPad Inc.).

Row | SMILES | IC50 [2] [µM] | melting point [°C] | IC50 at 24 h [1] [µM] | inhibition at 10 µM [2] [%] | IC50 at 24 h [3] [µM] | Inhibitory activity on LPS-induced NO secretion, in words [2]
1 | Cc1ccc(-c2cc(C(F)(F)F)nn2-c2ccc(S(N)(=O)=O)cc2)cc1 [Cel, Celecoxib, reference compound] | > 10 |  | > 100 | 30.1 ± 2.33 | > 100 | 
2 | CNC(=O)Nc1cc(C(C)=O)c(O)cc1OC [Compound A1, 1–(5-acetyl-4-hydroxy-2-methoxyphenyl)-3-methylurea] | > 10 | 211 to 213 | > 100 | 20.1 ± 6.12 | > 100 | 
3 | CCN(CC)C(=O)Nc1cc(C(C)=O)c(O)cc1OC [Compound A2, 3–(5-acetyl-4-hydroxy-2-methoxyphenyl)-1,1-diethylurea] | > 10 | 132 to 134 | > 100 | 30.2 ± 4.89 | > 100 | 
4 | COc1cc(O)c(C(C)=O)cc1NC(=O)N(C(C)C)C(C)C [Compound A3, 3–(5-acetyl-4-hydroxy-2-methoxyphenyl)-1,1-diisopropylurea] | > 10 | 148 to 149 | > 100 | 15.4 ± 3.15 | > 100 | 
5 | CONC(=O)Nc1cc(C(C)=O)c(O)cc1OC [Compound A4, 1–(5-acetyl-4-hydroxy-2-methoxyphenyl)-3-methoxyurea] | > 10 | 176 to 177 | > 100 | 15.2 ± 4.18 | > 100 | 
6 | COc1cc(O)c(C(C)=O)cc1NC(=O)NCC(F)(F)F [Compound A5, 1–(5-acetyl-4-hydroxy-2-methoxyphenyl)-3–(2,2,2-trifluoroethyl) urea] | > 10 | 232 to 234 | > 100 | 23.1 ± 3.25 | > 100 | 
7 | CCNC(=O)Nc1cc(C(C)=O)c(O)cc1OC [Compound A6, 1–(5-acetyl-4-hydroxy-2-methoxyphenyl)-3-ethylurea] | > 10 | 211 to 212 | > 100 | 16.2 ± 6.01 | > 100 | 
8 | COc1cc(O)c(C(C)=O)cc1NC(=O)N(C)C [Compound A7, 3–(5-acetyl-4-hydroxy-2-methoxyphenyl)-1,1-dimethylurea] | > 10 | 176 to 177 | > 100 | 33.7 ± 5.02 | > 100 | 
9 | COc1cc(O)c(C(C)=O)cc1NC(=O)NC(C)(C)C [Compound A8, 1–(5-acetyl-4-hydroxy-2-methoxyphenyl)-3-(tert-butyl) urea] | > 10 |  | > 100 | 12.3 ± 4.12 | > 100 | 
10 | COc1cc(O)c(C(C)=O)cc1NC(=O)NC1CC1 [Compound A9, 1–(5-acetyl-4-hydroxy-2-methoxyphenyl)-3-cyclopropylurea] | > 10 | 191 to 192 | > 100 | 41 ± 3.15 | > 100 | 
11 | COc1cc(O)c(C(C)=O)cc1NC(=O)N1CCN(C)CC1 [Compound A10, N-(5-acetyl-4-hydroxy-2-methoxyphenyl)-4-methylpiperazine-1-carboxamide] | > 10 | 141 to 142 | > 100 | 26 ± 5.12 | > 100 | 
12 | COc1cc(O)c(C(C)=O)cc1NC(=O)N1CCOCC1 [Compound A11, N-(5-acetyl-4-hydroxy-2-methoxyphenyl) morpholine-4-carboxamide] | > 10 | 220 to 221 | > 100 | 29.8 ± 3.74 | > 100 | 
13 | COc1cc(O)c(C(C)=O)cc1NC(=O)N1CCCC1 [Compound A12, N-(5-acetyl-4-hydroxy-2-methoxyphenyl) pyrrolidine-1-carboxamide] | > 10 | 118 to 120 | > 100 | 32.1 ± 4.17 | > 100 | 
14 | CCN1CCN(C(=O)Nc2cc(C(C)=O)c(O)cc2OC)CC1 [Compound A13, N-(5-acetyl-4-hydroxy-2-methoxyphenyl)-4-ethylpiperazine-1-carboxamide] | > 10 | 125 to 126 | > 100 | 35.1 ± 2.87 | > 100 | 
15 | COc1cc(O)c(C(C)=O)cc1NC(=O)N1CCSC1 [Compound A14, N-(5-acetyl-4-hydroxy-2-methoxyphenyl) thiazolidine-3-carboxamide] | > 10 | 172 to 174 | > 100 | 24.1 ± 5.16 | > 100 | 

Further lines, with some results ahead:

Row | IC50 [2] [µM] | melting point [°C] | SMILES | IC50 at 24 h [1] [µM] | inhibition at 10 µM [2] [%] | IC50 at 24 h [3] [µM] | Inhibitory activity on LPS-induced NO secretion, in words [2]
16 | 9.45 |  | COc1cc(O)c(C(C)=O)cc1NC(=O)Nc1ccccc1 [Compound B1, 1–(5-acetyl-4-hydroxy-2-methoxyphenyl)-3-phenylurea] | > 100 | 51 ± 3.25 | > 100 | 
17 | > 10 | 209 to 210 | COc1cc(O)c(C(C)=O)cc1NC(=O)Nc1cccc(C)c1 [Compound B2, 1–(5-acetyl-4-hydroxy-2-methoxyphenyl)-3-(m-tolyl) urea] | > 100 | 48.7 ± 5.49 | > 100 | 
18 | > 10 | 238 to 239 | COc1cc(O)c(C(C)=O)cc1NC(=O)Nc1ccccc1C [Compound B3, 1–(5-acetyl-4-hydroxy-2-methoxyphenyl)-3-(o-tolyl) urea] | > 100 | 47.2 ± 6.12 | > 100 | weak to moderate inhibitory activity
19 | 8.76 | 218 to 219 | COc1cc(O)c(C(C)=O)cc1NC(=O)Nc1ccc(C)cc1 [Compound B4, 1–(5-acetyl-4-hydroxy-2-methoxyphenyl)-3-(p-tolyl) urea] | > 100 | 53.9 ± 4.12 | > 100 | moderate inhibitory activity
20 | 6.22 |  | COc1cc(O)c(C(C)=O)cc1NC(=O)Nc1cccc(F)c1 [Compound B5, 1–(5-acetyl-4-hydroxy-2-methoxyphenyl)-3–(3-fluorophenyl) urea] | > 100 | 63 ± 3.87 | > 100 | 
21 | 4.7 |  | COc1cccc(NC(=O)Nc2cc(C(C)=O)c(O)cc2OC)c1 [Compound B8, 1–(5-acetyl-4-hydroxy-2-methoxyphenyl)-3–(3-methoxyphenyl) urea] | > 100 | 74.7 ± 6.15 | > 100 | 
22 | 6.88 | 228 to 229 | COc1ccccc1NC(=O)Nc1cc(C(C)=O)c(O)cc1OC [Compound B9, 1–(5-acetyl-4-hydroxy-2-methoxyphenyl)-3–(2-methoxyphenyl) urea] | > 100 | 56.7 ± 4.28 | > 100 | weak to moderate inhibitory activity
23 | 5.08 |  | COc1cc(O)c(C(C)=O)cc1NC(=O)Nc1ccc(C(F)(F)F)cc1 [Compound B11, 1–(5-acetyl-4-hydroxy-2-methoxyphenyl)-3–(4-(trifluoromethyl)phenyl) urea] | > 100 | 60.9 ± 4.12 | > 100 | 
24 | > 10 | 209 to 210 | COc1cc(O)c(C(C)=O)cc1NC(=O)Nc1ccc(OC(F)(F)F)cc1 [Compound B13, 1–(5-acetyl-4-hydroxy-2-methoxyphenyl)-3–(4-(trifluoromethoxy)phenyl) urea] | > 100 | 25.1 ± 4.18 | > 100 | 
25 | > 10 |  | COc1cc(O)c(C(C)=O)cc1NC(=O)NCc1ccccc1Cl [Compound C1, 1–(5-acetyl-4-hydroxy-2-methoxyphenyl)-3–(2-chlorobenzyl) urea] | > 100 | 33.7 ± 6.15 | > 100 | 
26 | > 10 |  | COc1ccccc1CNC(=O)Nc1cc(C(C)=O)c(O)cc1OC [Compound C6, 1–(5-acetyl-4-hydroxy-2-methoxyphenyl)-3–(2-methoxybenzyl) urea] | > 100 | 8.12 ± 6.12 | > 100 | 
27 | > 10 |  | COc1cc(O)c(C(C)=O)cc1NC(=O)NCCc1ccccc1 [Compound D1, 1–(5-acetyl-4-hydroxy-2-methoxyphenyl)-3-phenethylurea] | > 100 | 15.3 ± 5.12 | > 100 | 
28 | > 10 |  | COc1cc(O)c(C(C)=O)cc1NC(=O)NCCc1ccccc1F [Compound D4, 1–(5-acetyl-4-hydroxy-2-methoxyphenyl)-3–(2-fluorophenethyl)urea] | > 100 | 17.7 ± 2.15 | > 100 | 
